Where two headings read alike, the source gives them in different places.
Tests used:
Type in all cases: binding
FBW7^ARG (RLFBW7) alone = target: T1, FBW7^ARG (RLFBW7) alone (Homo sapiens, UniProt Q969H0, R505L); experiment: Counterscreen 1 ALPHAscreen with FBW7^ARG alone (CSRUN1/DCSRUN1); settings: dose-response counterscreen; for Emax: read-out: RLFBW7 ACT DCSRUN1 Averaged Max % Response
T1 construct: GST (TEV site and flexible linker) (N, cleaved yes); made in house; host or cells: SF9 insect cells (baculovirus)
T1 sequence (Q969H0 64-707 R505L): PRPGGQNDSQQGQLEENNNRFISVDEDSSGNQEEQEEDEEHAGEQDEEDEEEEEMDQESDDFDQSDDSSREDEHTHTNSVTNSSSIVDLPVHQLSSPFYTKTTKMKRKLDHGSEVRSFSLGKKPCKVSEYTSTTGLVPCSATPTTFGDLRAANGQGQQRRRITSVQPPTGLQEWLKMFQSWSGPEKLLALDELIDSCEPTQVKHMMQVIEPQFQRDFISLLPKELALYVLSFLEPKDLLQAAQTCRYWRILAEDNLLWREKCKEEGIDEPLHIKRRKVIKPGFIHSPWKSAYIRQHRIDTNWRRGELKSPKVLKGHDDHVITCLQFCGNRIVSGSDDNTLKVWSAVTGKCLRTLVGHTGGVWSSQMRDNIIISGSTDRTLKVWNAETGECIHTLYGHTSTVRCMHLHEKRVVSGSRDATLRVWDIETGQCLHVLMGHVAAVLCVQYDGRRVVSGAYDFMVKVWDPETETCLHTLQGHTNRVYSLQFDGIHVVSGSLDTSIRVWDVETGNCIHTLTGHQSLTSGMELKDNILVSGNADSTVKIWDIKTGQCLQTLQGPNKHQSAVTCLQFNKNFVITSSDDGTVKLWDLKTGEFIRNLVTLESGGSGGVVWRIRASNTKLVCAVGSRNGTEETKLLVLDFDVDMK
T1 sequence (P63208 2-163 partner): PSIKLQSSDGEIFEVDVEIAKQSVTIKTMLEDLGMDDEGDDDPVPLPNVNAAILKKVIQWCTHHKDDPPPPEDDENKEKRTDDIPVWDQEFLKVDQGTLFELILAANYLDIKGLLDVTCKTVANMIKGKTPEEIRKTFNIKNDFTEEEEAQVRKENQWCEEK
Method: (§1) Studies in 384-well format were performed using the ENVISION system. Reagent concentrations (see FIG. 6A), order of addition, pH (see FIG. 6B), and reducing agent were altered with the goal of enhancing the dynamic range between wt-FBW7 (the positive control) and FBW7^ARG (FIG. 6 and not shown). Wt-FBW7 produced a signal 100× greater with phosphorylated cyclin E degron peptide compared with unphosphorylated, which represents the assay's maximum range (FIG. 6C). […] This assay thus detects the residual affinity of the FBW7^ARG-substrate interaction, which, as predicted, is stronger than wt-FBW7 protein with unphosphorylated cyclin E peptide. Concurrent with this primary assay, counter ALPHAscreens were developed which omitted either FBW7 or peptide (to eliminate hits that are general ALPHAscreen agonists), or used an irrelevant phosphopeptide (to eliminate compounds that simply augment binding to phosphopeptides). […]
(§2) The 77 hits were subjected to a dose-response assay in which each compound was tested in triplicate in a 10 point 3-fold dilutional series, to a maximum concentration of approximately 87 μM. Three screens were performed, using FBW7^ARG+pCycE (DRUN), FBW7^ARG (DCSRUN1), or pCycE alone (DCSRUN2). See TABLES 2, 3, and 4, respectively, and FIG. 10A. All of the assays performed extremely well, and threshold of 10% activation (relative to WT-FBW7+pCycE) was set as positive. […] Many hits fell into shared structure cluster ID groups, reinforcing the idea that they function as specific agonists (see below and TABLE 5).

pCycE alone = experiment: Counterscreen 2 ALPHAscreen with cyclin E phosphopeptide alone (CSRUN2/DCSRUN2); settings: for CyCEP ACT DCSRUN2 Averaged Max % Response: activation relative to WT-FBW7+pCycE, averaged maximum; for EC50: dose-response, triplicate, 10 point 3-fold dilutional series, read-out: CyCEP ACT DCSRUN2 Final EC50
Method: as §1, §2

FBW7^ARG+pCycE = target: T2, FBW7^ARG+pCycE (Homo sapiens, UniProt Q969H0, R505L); experiment: FBW7^ARG-cyclin E agonist ALPHAscreen (primary PRUN, confirmation CRUN1, dose-response DRUN); settings: for EC50 / Emax: DRUN dose-response; for Emax: relative to WT-FBW7+pCycE, read-out: FBW7 ACT Averaged Max % Response
T2 construct: GST (TEV site and flexible linker) (N, cleaved yes); made in house; host or cells: SF9 insect cells (baculovirus)
T2 sequence (Q969H0 64-707 R505L): as the sequence (Q969H0 64-707 R505L) above
T2 sequence (P63208 2-163 partner): as the sequence (P63208 2-163 partner) above
Excerpt: FBW7^ARG refers to a class of loss-of-function mutations of the of FBW7 ubiquitin ligase that target a key phosphate-binding arginine residue in the FBW7 substrate-binding domain. These mutations are commonly found in human cancers and promote tumorigenesis by impairing the interactions between FBW7 and its substrates, such as cyclin E and Myc. Described herein is a high throughput screen (HTS) to identify agonists, such as small molecules, that augment FBW7^ARG-substrate binding. In an embodiment, the HTS is based on the Amplified Luminescent Proximity Homogenous Assay (ALPHAscreen) because it detects protein-protein interactions with a large dynamic range. ALPHAscreen is a bead-based proximity assay wherein donor beads contain a photosensitizer, phthalocyanine, and acceptor beads contain thioxene, anthracene and rubrenein in sufficient quantities to generate a chemiluminescence/fluorescence reaction (FIG. 4A). Upon excitation with excitation illumination, such as light having a wavelength of 680 nm, of the donor beads, phthalocyanine converts ambient oxygen to singlet oxygen, which can diffuse approximately 200 nm within its 4-microsecond half-life. If an acceptor bead is in close proximity to an excited donor bead, singlet oxygen transfers its energy to the acceptor, resulting in emitted light at a broad bandwidth of −520-620 nm. The HTS-compatible FBW7/cyclin E ALPHAscreen assay described herein uses streptavidin coupled donor beads and Ni-chelate acceptor beads. In this assay, biotinylated cyclin E phosphopeptide and the His-tagged FBW7 mutant protein have high affinity for the donor and acceptor beads, respectively (FIG. 4B). A small molecule that is able to bridge the binding sites of the peptide and the mutant protein (or induce a conformational change that increases affinity of the protein for the peptide) will bring the donor and acceptor beads in close proximity to each other, resulting in an ALPHA signal. As designed, this assay format is a very sensitive, non-radioactive, homogenous “mix-and-read” format that is HT compatible in 384 and 1536 well formats.
In the 384-well screening assay, 10 uL of acceptor beads with 25 nM of the FBW7^ARG (RLFBW7) are dispensed to test wells; acceptor beads with 25 nM of the wt-FBW7 protein (WTFBW7) are dispensed to control wells. Test compounds are then added by pintool transfer and the mixture is incubated for 30 minutes. An additional 10 uL of donor beads with 25 nM cyclin E phosphopeptide is then added to all wells and the plate is incubated for 4 hours before the ALPHA signal is measured.
In preparation for large-scale screening, the assay was miniaturized to a 1536-well format. The miniaturized screen performed outstandingly in all respects. The screen was enhanced with respect to several parameters and assayed its performance using mutant FBW7 and wt-FBW7, as well as non-specific assay agonists. […] For example, the following Z′-scores/FBW7 concentrations were obtained: 6.25 nM/Z′=0.62, 12.5 nm/Z′=0.85, 25.0 nM/Z′=0.84.
1. Add 2.5 uL of RLFBW7/cycE˜P/Ni beads: Final [25 nM/25 nM/10 ug/ml].
2. Add 2.5 uL of WTFBW7/cycE˜P/Ni beads: Final [25 nM/25 nM/10 ug/ml].
4. Add 2.5 uL of SA beads to all wells Final [10 ug/ml],
5. Add 30 nL of compounds,
6. Read ALPHAscreen on Envision
The large-scale FBW7 agonist ALPHAscreen was completed using FBW7^ARG and a phosphorylated cyclin E (pCycE) degron peptide. Wt-FBW7+pCycE-peptide was the “high control”, and Wt-FBW7+unphosph. CycE peptide was the “low control”. The screen was performed on the 645,000-compound Scripps Diversity Library using 1536-well format and drug concentrations of 26.1 μM. An algorithm aided hit identification based on the average percent activation for all compounds and their standard deviation.
A confirmation assay of all 853 compounds in triplicate using a single concentration (26.1 μM). […]

[1] = raw curve fit, read-out: RLFBW7 ACT DCSRUN1 EC50 Curve Fit Raw
[2] = read-out: RLFBW7 ACT DCSRUN1 Final EC50
[3] = raw curve fit, read-out: FBW7 ACT EC50 Curve Fit Raw, Molar
[4] = triplicate, 10 point 3-fold dilution, max approx. 87 μM, read-out: FBW7 ACT Final EC50, Molar
[5] = confirmation assay, triplicate, single concentration 26.1 μM, read-out: FBW7 ACT CRUN1 Avg % Response and Stdev
[6] = primary screen, 1536-well, 26.1 μM, FBW7^ARG + pCycE degron peptide, high control wt-FBW7+pCycE, read-out: FBW7 ACT PRUN % Response

| SMILES | EC50 (FBW7^ARG (RLFBW7) alone; [1]) | Emax (FBW7^ARG (RLFBW7) alone) | EC50 (FBW7^ARG (RLFBW7) alone; [2]) | CyCEP ACT DCSRUN2 Averaged Max % Response (pCycE alone) | EC50 (pCycE alone) | EC50 (FBW7^ARG+pCycE; [3]) | Emax (FBW7^ARG+pCycE) | EC50 (FBW7^ARG+pCycE; [4]) | activation at 26.1 µM (FBW7^ARG+pCycE; [5]) | activation at 26.1 µM (FBW7^ARG+pCycE; [6]) |
| --- | --- | --- | --- | --- | --- | --- | --- | --- | --- | --- |
| COc1cc(-c2ccnc(N)n2)ccc1NC(=O)[C@H]1COc2ccccc2O1.O=C(O)C(F)(F)F [SR-00000003239-1] | 12.8 µM | 0.69% | > 65.3 µM | 0.15% | > 65.3 µM | 18.6 µM | 19.3% | > 65.3 µM | 2.52 ± 0.29% | 2.52% |
| NC(c1nc2cc(-c3ccncc3)cnc2[nH]1)c1ccc(F)cc1F.O=C(O)C(F)(F)F (stereo not drawn) [SR-00000003416-1] | 4 µM | 0.2% | > 65.3 µM | 0.29% | > 65.3 µM | 8.8 µM | 16.4% | > 65.3 µM | 3.91 ± 0.47% | 3.51% |
| O=C(NCc1ccc(C(=O)NCCc2ccccn2)cc1)Nc1ccc(-c2cn[nH]c2)cc1 [SR-00000005517-1] | 28.3 µM | 100% | 28.2 µM |  |  | 31.5 µM | 20% | > 65.3 µM | 4.71 ± 0.2% | 1.94% |
| O=C([C@H]1CC[C@H](Nc2nccc(-c3ccc4nc(C5CC5)nc(O)c4c3)n2)CC1)N1CCCC1 [SR-00000008677-1] | 0.0572 µM | 0.06% | > 65.3 µM |  |  |  | 35.9% | > 65.3 µM | 4.42 ± 0.03% | 2.63% |
| Cc1cccc(CC(=O)Nc2cnn(-c3cccc(C(=O)N4CCNC(=O)CC4)c3)c2)c1 [SR-01000188911-1] | 1.7 µM | -0.141% | > 65.3 µM |  |  | 7.5 µM | 23.6% | > 65.3 µM | 2.88 ± 0.43% | 4.34% |
| COc1ccccc1N1C(=O)c2ccc(C(=O)Nc3cc([N+](=O)[O-])ccc3O)cc2C1=O [SR-01000236956-1] | 21.2 µM | 2.25% | > 65.3 µM |  |  | 22.1 µM | 10.6% | > 65.3 µM | 3.72 ± 0.2% | 2.14% |
| Cc1ccnc(N2CCC(C(=O)Nc3ccccc3Br)CC2)n1 [SR-01000330228-1] |  | 0.25% | > 65.3 µM |  |  | 0.0482 µM | 6.46% | > 65.3 µM | 3.43 ± 0.23% | 2.08% |
| O=C(Nc1ccc2oc(-c3ccc4ccccc4c3)nc2c1)c1cccc(Cl)c1Cl [SR-01000415504-1] | 0.136 µM | -0.031% | > 56.6 µM |  |  | 0.0458 µM | 7.3% | > 56.6 µM | 10.7 ± 0.62% | 1.88% |
| CCCOC(=O)C1=C(C)N(CC)C(=O)NC1c1ccccc1[N+](=O)[O-] (stereo not drawn) [SR-01000417871-1] | 2.8 µM | 0.3% | > 67.2 µM |  |  | 8.6 µM | 17.3% | > 67.2 µM | 18.3 ± 0.97% | 2.55% |
| CCc1ccc(N2CC(C(=O)NCC(C)(C)CNC(=O)C3CC(=O)N(c4ccc(CC)cc4)C3)CC2=O)cc1 (stereo not drawn) [SR-01000537224-1] | 0.0053 µM | 2.4% | > 40.4 µM |  |  | 7.1 µM | 16.5% | > 40.4 µM | 7.38 ± 0.72% | 4.51% |
| COc1cc2c(cc1OC)C(COc1ccc([N+](=O)[O-])cc1)N(C(=O)c1ccc3c(c1)OCO3)CC2 (stereo not drawn) [SR-01000568734-1] |  | 1.58% | > 49.8 µM |  |  | 9.2 µM | 16% | > 49.8 µM | 3.13 ± 0.23% | 2.1% |
| COc1ccc(NC(=O)c2cc(S(=O)(=O)N3CCN(c4ccccn4)CC3)ccc2F)cc1 [SR-01000579121-1] |  | 1.99% | > 54.6 µM |  |  | 0.0032 µM | 11.6% | > 54.6 µM | 2.82 ± 0.29% | 1.87% |

Source: patent publication US20210047278A1, “E3 UBIQUITIN LIGASE AGONISTS, PHARMACEUTICAL COMPOSITIONS INCLUDING THE E3 UBIQUITIN LIGASE AGONISTS, RELATED METHODS OF USE” (FRED HUTCHINSON CANCER RESEARCH CENTER, priority 2018, published 2021)
